Results taken from ChEMBL document CHEMBL6092168, “Identification of novel indolinone derivatives as CTSC inhibitors to treat inflammatory bowel disease by modulating inflammatory factors” (Eur J Med Chem, 2024).
Active and inactive are the calls of the source. The rule behind the calls is not given here.

Experiments:
[1] = system: Mus musculus; assay: Anti-inflammatory activity in DSS-induced ulcerative colitis C57BL/6 mouse model assessed as effect on Cathepsin C activity at 60 mg/kg, administered twice daily; type: functional, organism-based
[2] = system: RAW264.7; assay: Anti-inflammatory activity in mouse RAW264.7 cells assessed as inhibition of LPS-induced TNF-alpha production at 5 uM preincubated for 1 hr followed by LPS addition and measured after 24 hrs by ELISA relative to control; type: functional; parameters: scale not given: the % may be the effect or the level left
[3] = biological target: T1, Myeloblastin (Homo sapiens) (UniProt P24158); assay: Inhibition of proteinase 3 in human U-937 cells using aminobenzoyl-Val-Ala-Asp-Cys-Ala-Asp-Gln-ethylenediamine 2,4-dinitrophenyl as substrate at 10 uM incubated for 5 days by fluorescence based microplate reader analysis relative to control; type: cell-based; details: time 5.0 day
T1 sequence (whole entry): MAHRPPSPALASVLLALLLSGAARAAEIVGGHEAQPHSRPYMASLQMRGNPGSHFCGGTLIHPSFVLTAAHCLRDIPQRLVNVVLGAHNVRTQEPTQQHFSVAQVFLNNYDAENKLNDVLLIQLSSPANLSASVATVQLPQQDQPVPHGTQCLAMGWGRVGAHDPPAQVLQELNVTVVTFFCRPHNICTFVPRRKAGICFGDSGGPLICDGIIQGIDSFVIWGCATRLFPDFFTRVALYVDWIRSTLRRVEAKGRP

[4] = system: RAW264.7; assay: Anti-inflammatory activity in mouse RAW264.7 cells assessed as inhibition of LPS-induced NO production preincubated for 1 hr followed by LPS addition and measured after 24 hrs by Griess reagent based assay; type: functional, cell-based
[5] = biological target: T2, Cathepsin G (Homo sapiens) (UniProt P08311); assay: Inhibition of Cathepsin G in human U-937 cells using N-Suc-Ala-Ala-Pro-Phe-pNA as substrate at 10 uM incubated for 5 days by […] based microplate reader analysis relative to control; type: cell-based; details: time 5.0 day
T2 sequence (whole entry): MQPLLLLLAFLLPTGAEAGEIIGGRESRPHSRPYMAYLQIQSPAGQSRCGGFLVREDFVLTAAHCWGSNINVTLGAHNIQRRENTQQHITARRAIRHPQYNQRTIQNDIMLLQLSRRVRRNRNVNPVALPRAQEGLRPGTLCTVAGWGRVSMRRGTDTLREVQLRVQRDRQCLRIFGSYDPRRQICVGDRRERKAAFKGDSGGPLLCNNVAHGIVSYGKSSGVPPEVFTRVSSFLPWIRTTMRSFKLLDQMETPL

[6] = system: RAW264.7; assay: Anti-inflammatory activity in mouse RAW264.7 cells assessed as inhibition of LPS-induced IL-1beta production at 5 uM preincubated for 1 hr followed by LPS addition and measured after 24 hrs by ELISA relative to control; type: functional; parameters: scale not given: the % may be the effect or the level left
[7] = biological target: T3, Neutrophil elastase (Homo sapiens) (UniProt P08246); assay: Inhibition of neutrophil elastase in human U-937 cells using N-MeSuc-Ala-Pro-Val-pNA as substrate at 10 uM incubated for 5 days by […] based microplate reader analysis relative to control; type: cell-based; details: time 5.0 day
T3 sequence (whole entry): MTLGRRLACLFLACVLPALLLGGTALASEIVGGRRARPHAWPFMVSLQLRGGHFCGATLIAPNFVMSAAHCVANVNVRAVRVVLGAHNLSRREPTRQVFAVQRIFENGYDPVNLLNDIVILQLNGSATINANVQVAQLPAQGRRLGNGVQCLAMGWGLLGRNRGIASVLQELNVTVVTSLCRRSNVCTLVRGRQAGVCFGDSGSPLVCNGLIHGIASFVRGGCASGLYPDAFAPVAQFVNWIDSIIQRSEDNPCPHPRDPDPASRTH

[8] = biological target: T4, Dipeptidyl peptidase 1 (Homo sapiens, UniProt P53634); assay: Inhibition of Cathepsin C in human U-937 cells using H-Gly-Arg-AMC as substrate at 10 uM incubated for 5 days by fluorescence based microplate reader analysis relative to control; type: cell-based; details: time 5.0 day
[9] = system: Mus musculus; assay: Anti-inflammatory activity in DSS-induced ulcerative colitis C57BL/6 mouse model assessed as effect on neutrophil serine proteases level at 60 mg/kg, administered twice daily; type: functional, organism-based
[10] = system: Mus musculus; assay: Anti-inflammatory activity in DSS-induced ulcerative colitis male C57BL/6 mouse model assessed as reduction in Cathepsin G level in colon at 60 mg/kg administered via gavage for 10 days relative to control; type: functional; details: time 10.0 day
[11] = system: Mus musculus; assay: Anti-inflammatory activity in DSS-induced ulcerative colitis male C57BL/6 mouse model assessed as reduction in Cathepsin G level in serum at 60 mg/kg administered via gavage for 10 days relative to control; type: functional; details: time 10.0 day
[12] = system: Mus musculus; assay: Anti-inflammatory activity in DSS-induced ulcerative colitis male C57BL/6 mouse model assessed as reduction in Cathepsin C level in serum at 60 mg/kg administered via gavage for 10 days relative to control; type: functional; details: time 10.0 day
[13] = system: Mus musculus; assay: Anti-inflammatory activity in DSS-induced ulcerative colitis male C57BL/6 mouse model assessed as reduction in Cathepsin C level in colon at 60 mg/kg administered via gavage for 10 days; type: functional; details: time 10.0 day
[14] = system: Mus musculus; assay: Anti-inflammatory activity in DSS-induced ulcerative colitis male C57BL/6 mouse model assessed as reduction in neutrophil elastase level in colon at 60 mg/kg administered via gavage for 10 days relative to control; type: functional; details: time 10.0 day
[15] = system: Mus musculus; assay: Anti-inflammatory activity in DSS-induced ulcerative colitis male C57BL/6 mouse model assessed as reduction in neutrophil elastase level in serum at 60 mg/kg administered via gavage for 10 days relative to control; type: functional; details: time 10.0 day
[16] = system: Mus musculus; assay: Anti-inflammatory activity in DSS-induced ulcerative colitis male C57BL/6 mouse model assessed as reduction in proteinase 3 level in colon at 60 mg/kg administered via gavage for 10 days relative to control; type: functional; details: time 10.0 day
[17] = biological target: T4, Dipeptidyl peptidase 1; assay: Inhibition of human recombinant Cathepsin C using Gly-Phe-AFC as substrate preincubated for 3 hrs followed by substrate addition and measured after 1 hr by fluorescence based multifunctional microplate reader analysis

T4 sequence (P53634 25-134 limits assumed): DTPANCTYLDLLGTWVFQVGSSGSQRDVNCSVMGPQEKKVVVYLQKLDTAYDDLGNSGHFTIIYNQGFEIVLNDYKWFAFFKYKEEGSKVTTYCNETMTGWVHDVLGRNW
T4 sequence (P53634 231-394 limits assumed): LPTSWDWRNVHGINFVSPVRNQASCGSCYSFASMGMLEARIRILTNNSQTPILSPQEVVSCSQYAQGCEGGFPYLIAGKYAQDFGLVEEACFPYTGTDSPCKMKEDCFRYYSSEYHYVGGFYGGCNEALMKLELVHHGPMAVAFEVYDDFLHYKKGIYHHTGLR
T4 sequence (P53634 395-463 limits assumed): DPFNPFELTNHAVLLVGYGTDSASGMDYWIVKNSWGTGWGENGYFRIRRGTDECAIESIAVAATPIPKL

SMILES: Cn1c(=O)oc2ccc(-c3ccc(C[C@@H](C#N)NC(=O)[C@@H]4CNCCCO4)cc3)cc21 [BRENSOCATIB]
- Activity [1]: Active
- Activity ([2]; time 25 hrs): 65.1%
- inhibition [3]: 16.7%
- IC50 [4]: 6.7 µM
- inhibition [5]: 12.1%
- Activity ([6]; time 25 hrs): 70.9%
- inhibition [7]: 8.29%
- inhibition [8]: 10.1%
- Activity [9]: Active

SMILES: Nc1ccc(O)c(C(=O)O)c1
- Activity [10]: Active
- Activity [11]: Active
- Activity [12]: Active
- Activity [13]: Active
- Activity [14]: Active
- Activity [15]: Active
- Activity [16]: Active

SMILES: O=C(Nc1nccc2ccccc12)c1cccc(-c2ccc(CN3CCOCC3)cc2)c1
- Activity ([2]; time 25 hrs): 67.7%
- IC50 [4]: 8.7 µM
- Activity ([6]; time 25 hrs): 70.6%
- IC50 [17]: 0.262 µM

SMILES: O=C1Nc2c(cccc2-c2ccc(C(=O)N3CCOCC3)cc2)/C1=C/c1ccnc2ccccc12
- Activity ([2]; time 25 hrs): 58.1%
- IC50 [4]: 8.6 µM
- Activity ([6]; time 25 hrs): 65.2%
- IC50 [17]: 0.182 µM

SMILES: O=C1Nc2c(cccc2-c2ccc(C(F)(F)F)cc2)/C1=C/c1ccnc2ccccc12
- Activity ([2]; time 25.0 hrs): inactive
- IC50 [4]: > 50 µM
- Activity ([6]; time 25.0 hrs): inactive
- IC50 [17]: > 1 µM

SMILES: NC(=O)c1ccc(-c2cccc3c2NC(=O)/C3=C\c2ccnc3ccccc23)cc1
- Activity ([2]; time 25.0 hrs): inactive
- IC50 [4]: 16.2 µM
- Activity ([6]; time 25.0 hrs): inactive
- IC50 [17]: 0.29 µM

SMILES: O=C(Nc1cncc2ccccc12)c1cccc(-c2ccc(CN3CCOCC3)cc2)n1
- Activity ([2]; time 25.0 hrs): inactive
- IC50 [4]: > 50 µM
- Activity ([6]; time 25.0 hrs): inactive
- IC50 [17]: 0.251 µM

SMILES: O=C(Nc1ccccc1)c1cccc(-c2ccc(CN3CCOCC3)cc2)c1
- Activity ([2]; time 25.0 hrs): inactive
- IC50 [4]: > 50 µM
- Activity ([6]; time 25.0 hrs): inactive
- IC50 [17]: > 1 µM

SMILES: O=C1Nc2c(cccc2-c2ccc3cn[nH]c3c2)/C1=C/c1ccnc2ccccc12
- Activity ([2]; time 25 hrs): 43.3%
- IC50 [4]: 14.8 µM
- Activity ([6]; time 25 hrs): 65.3%
- IC50 [17]: 0.311 µM

SMILES: CC(=O)Nc1ccc(NC(=O)c2cccc(-c3ccc(CN4CCOCC4)cc3)c2)cc1
- Activity ([2]; time 25.0 hrs): inactive
- IC50 [4]: > 50 µM
- Activity ([6]; time 25.0 hrs): inactive
- IC50 [17]: 0.77 µM

SMILES: CCc1ccccc1NC(=O)c1cccc(-c2ccc(CN3CCOCC3)cc2)c1
- Activity ([2]; time 25.0 hrs): inactive
- IC50 [4]: > 50 µM
- Activity ([6]; time 25.0 hrs): inactive
- IC50 [17]: > 1 µM

SMILES: O=C1Nc2c(cccc2-c2ccc(F)cc2)/C1=C/c1ccnc2ccccc12
- Activity ([2]; time 25.0 hrs): inactive
- IC50 [4]: 37.2 µM
- Activity ([6]; time 25.0 hrs): inactive
- IC50 [17]: > 1 µM

SMILES: Nc1c(C(=O)Nc2ccc3ccccc3c2)cccc1-c1ccc(CN2CCOCC2)cc1
- Activity ([2]; time 25 hrs): 69.7%
- IC50 [4]: 6.1 µM
- Activity ([6]; time 25 hrs): 64.2%
- IC50 [17]: 0.31 µM

SMILES: CCc1cccc(NC(=O)c2cccc(-c3ccc(CN4CCOCC4)cc3)c2)c1
- Activity ([2]; time 25.0 hrs): inactive
- IC50 [4]: > 50 µM
- Activity ([6]; time 25.0 hrs): inactive
- IC50 [17]: > 1 µM

SMILES: CN1CCN(Cc2ccc(-c3cccc4c3NC(=O)/C4=C\c3ccnc4ccccc34)cc2)CC1
- Activity ([2]; time 25 hrs): 70.4%
- IC50 [4]: 3.2 µM
- Activity ([6]; time 25 hrs): 80.4%
- IC50 [17]: 0.161 µM

SMILES: CC(=O)c1ccc(NC(=O)c2cccc(-c3ccc(CN4CCOCC4)cc3)c2)cc1
- Activity ([2]; time 25.0 hrs): inactive
- IC50 [4]: > 50 µM
- Activity ([6]; time 25.0 hrs): inactive
- IC50 [17]: > 1 µM

SMILES: Nc1ccc(-c2cccc3c2NC(=O)/C3=C\c2ccnc3ccccc23)cc1
- Activity ([2]; time 25.0 hrs): inactive
- IC50 [4]: 8.1 µM
- Activity ([6]; time 25.0 hrs): inactive
- IC50 [17]: 0.493 µM

SMILES: Nc1ccc(NC(=O)c2cccc(-c3ccc(CN4CCOCC4)cc3)c2)cc1
- Activity ([2]; time 25.0 hrs): inactive
- IC50 [4]: > 50 µM
- Activity ([6]; time 25.0 hrs): inactive
- IC50 [17]: > 1 µM

SMILES: O=C(Nc1cccc(C(F)(F)F)c1)c1cccc(-c2ccc(CN3CCOCC3)cc2)c1
- Activity ([2]; time 25.0 hrs): inactive
- IC50 [4]: > 50 µM
- Activity ([6]; time 25.0 hrs): inactive
- IC50 [17]: > 1 µM

SMILES: CC(=O)c1ccc(-c2cccc3c2NC(=O)/C3=C\c2ccnc3ccccc23)cc1
- Activity ([2]; time 25.0 hrs): inactive
- IC50 [4]: 16.8 µM
- Activity ([6]; time 25.0 hrs): inactive
- IC50 [17]: 0.293 µM

SMILES: O=C(Nc1ccnc2ccccc12)c1cccc(-c2ccc(CN3CCOCC3)cc2)n1
- Activity ([2]; time 25 hrs): 62.2%
- IC50 [4]: 2.9 µM
- Activity ([6]; time 25 hrs): 70.2%
- IC50 [17]: 0.273 µM

SMILES: CN(C)c1ccc(-c2cccc3c2NC(=O)/C3=C\c2ccnc3ccccc23)cc1
- Activity ([2]; time 25.0 hrs): inactive
- IC50 [4]: 15.1 µM
- Activity ([6]; time 25.0 hrs): inactive
- IC50 [17]: > 1 µM

SMILES: O=C(Nc1cncc2ccccc12)c1cccc(-c2ccc(CN3CCOCC3)cc2)c1
- Activity ([2]; time 25 hrs): 62.5%
- IC50 [4]: 9.7 µM
- Activity ([6]; time 25 hrs): 65.6%
- IC50 [17]: 0.25 µM

SMILES: Nc1c(C(=O)Nc2ccnc3ccccc23)cccc1-c1ccc(CN2CCOCC2)cc1
- Activity ([2]; time 25 hrs): 75.2%
- IC50 [4]: 6.4 µM
- Activity ([6]; time 25 hrs): 80.9%
- IC50 [17]: 0.145 µM

SMILES: CC(=O)Nc1ccc(-c2cccc3c2NC(=O)/C3=C\c2ccnc3ccccc23)cc1
- Activity ([2]; time 25.0 hrs): inactive
- IC50 [4]: 16.2 µM
- Activity ([6]; time 25.0 hrs): inactive
- IC50 [17]: 0.303 µM

SMILES: NC(=O)c1ccc(NC(=O)c2cccc(-c3ccc(CN4CCOCC4)cc3)c2)cc1
- Activity ([2]; time 25.0 hrs): inactive
- IC50 [4]: > 50 µM
- Activity ([6]; time 25.0 hrs): inactive
- IC50 [17]: > 1 µM

SMILES: O=C(Nc1cccc(O)c1)c1cccc(-c2ccc(CN3CCOCC3)cc2)c1
- Activity ([2]; time 25 hrs): 62.2%
- IC50 [4]: 9.7 µM
- Activity ([6]; time 25 hrs): 55.7%
- IC50 [17]: 0.265 µM
